Data on three molecules can be found in paper PMC7436013, “Design, Synthesis, and Biological Investigation of Novel Classes of 3-Carene-Derived Potent Inhibitors of TDP1” (Molecules, 2020).

Molecules are shown by their SMILES.

The subject of data set [1] is TDP1. The arrangement: method as in PMID 31619021, PMID 30396105, PMID 30142660, PMID 29562592, PMID 27658793. The following applies: Figure 1; ref [10]-[13],[16]-[18],[20],[22]; read-out: IC50 of known TDP1 inhibitors; cited from earlier work.
In data set [2] the test system is Krebs-2 ascites. Further details: method as in PMID 31878088. The following applies: in vivo tumor model, ref [17]; cited from earlier work.
For data set [3], the target named is T1, TDP1 (Homo sapiens, UniProt Q9NUW8).
T1 construct: made in house; host or cells: Escherichia coli
Kind of data set: Real-time detection of TDP1 activity with fluorescent oligonucleotide biosensor. The class given is biochemical. The protocol:
The compounds synthesized starting from (+)-3-carene 8 were tested for their TDP1 inhibitory properties by measuring their IC50 values using a real-time fluorescent oligonucleotide biosensor [38].
A fluorophore quencher-coupled oligonucleotide biosensor was used for TDP1 enzyme activity real-time fluorescence detection. […] Recombinant protein TDP1 was expressed in Escherichia coli (pET 16B plasmid containing TDP1 cDNA was provided by Dr. K.W. Caldecott, University of Sussex, United Kingdom) and isolated as described by Lebedeva et al.. The reaction mixture contained TDP1 reaction buffer (50 mM Tris-HCl, 50 mM NaCl, 7 mM β-mercaptoethanol), 50 nM oligonucleotide substrate, varied concentrations of the tested compounds, and 1.5 nM purified TDP1 in a final volume of 200 μL.
The TDP1 reaction mixture was incubated at rt in a POLARstar OPTIMA fluorimeter (BMG LABTECH, GmbH). Fluorescence intensity was measured every 1 min (Ex485/Em520 nm). The efficiency of TDP1 inhibition was evaluated by comparing the rate of increase in the fluorescence of the biosensor in the presence of the compound to that of DMSO (1.5%) control wells. IC50 values were determined using an 11-point concentration–response curve. The data were imported into MARS Data Analysis 2.0 program (BMG LABTECH) and the slope during the linear phase was calculated. The IC50 measurements were carried out in at least three independent experiments.

The subject of data set [4] is in vivo Parkinson model. The following applies: ref [24]; cited from earlier work.
The conditions of data set [5]: ref [24]; cited from earlier work.
Data set [6] has as its system human breast adenocarcinoma cell line MCF-7. The arrangement: method as in PMID 27658793. As to conditions: ref [16]; cited from earlier work.

T1 sequence (Q9NUW8 whole entry): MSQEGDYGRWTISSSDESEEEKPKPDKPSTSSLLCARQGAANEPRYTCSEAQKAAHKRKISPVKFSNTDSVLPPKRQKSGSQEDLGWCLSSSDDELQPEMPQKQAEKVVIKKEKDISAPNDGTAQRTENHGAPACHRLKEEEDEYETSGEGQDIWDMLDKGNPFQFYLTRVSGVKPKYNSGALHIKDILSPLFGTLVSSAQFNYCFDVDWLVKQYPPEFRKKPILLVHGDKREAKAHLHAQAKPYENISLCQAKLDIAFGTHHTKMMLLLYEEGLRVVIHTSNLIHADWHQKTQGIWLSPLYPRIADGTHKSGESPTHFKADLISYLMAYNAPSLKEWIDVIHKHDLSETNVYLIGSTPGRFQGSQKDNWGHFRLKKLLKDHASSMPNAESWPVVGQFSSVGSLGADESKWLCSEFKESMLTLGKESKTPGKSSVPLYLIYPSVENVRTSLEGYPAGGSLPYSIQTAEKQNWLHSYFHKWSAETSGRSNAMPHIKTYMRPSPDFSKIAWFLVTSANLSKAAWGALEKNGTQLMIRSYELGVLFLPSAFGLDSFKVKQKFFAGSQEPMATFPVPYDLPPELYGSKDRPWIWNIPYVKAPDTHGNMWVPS

As for `CC(C)=CCC/C(C)=C/COc1ccc2c(-c3ccc(F)cc3)cc(=O)oc2c1` [compound 5], in data set [1], the IC50 (in general, the midpoint of a concentration-inhibition curve) was 620 nM. Moreover, the “effect on the antitumor effect of Tpc” value in data set [2] is given as “significant increase in the antitumor effect of Tpc”.

For `COc1cc(C2OC(C)(C)[C@@H]3CCC(C)=C[C@H]23)ccc1O` (mixture of isomers) [11a], in data set [3], the “activity against TDP1 (in words)” value is given as “do not exhibit activity”. In data set [3] (real-time fluorescent oligonucleotide biosensor, 1.5 nM TDP1, 50 nM substrate, read-out: IC50, TDP1 inhibition), the IC50 was over 20000 nM. In data set [4], the neuroprotective activity result was “potent neuroprotective activity”. Moreover, in data set [5], the acute toxicity result was “low acute toxicity”.

With `CC1(C)C2CC=C(COc3ccc4c5c(c(=O)oc4c3)CCC5)C1C2` (centres unmarked) [compound 4], in data set [1], the IC50 is 680 nM. Moreover, the “reduction of the CC50 of camptothecin” value in data set [6] is recorded as “eight-fold”.
